These results are taken from US5231082A, “Cyclic peptide with anti-metastasis activity” (Monsanto Company, priority 1989, dated 1993).

The subject of test [1] is 67 kd laminin receptor. Put plainly: Laminin receptor binding / elution from laminin affinity columns.
For test [2], the system named is HT-1080 cells. Put plainly: In vitro cell attachment assays. The class given is cell-based, human. On the procedure: HT-1080 cells from a human fibrosarcoma (Rasheed, S. et al., Cancer (Philadelphia) 33:1027 (1974) are maintained in Dulbecco's modified Eagle's medium (DMEM) supplemented with 10% fetal calf serum. After the cells are grown to 80% confluency, they are washed with 0.02M phosphate buffer, pH 7.4, without CA^+2 and Mg^+2 and detached with a solution of 0.025% trypsin plus 0.025% ethylenediaminetetraacetic acid (EDTA; GIBCO). The cells are then pelleted by low speed centrifugation and resuspended in Eagle's minimal essential medium (EMEM) containing 0.02% bovine serum albumin (BSA, Sigma Chemical Co., St. Louis, Mo.). Cell attachment assays are performed as described in Klebe, R.J. Nature (London) 250:248 (1974), on tissue culture plastic substrates by using 16-mm Falcon tissue culture wells (Fisher Scientific Co., Pittsburg, Pa.) incubated with various peptides or with laminin in lmL of EMEM containing 0.02% BSA for 1 or 2 hours at 37° C. Cells (10^5 in 0.1 mL) are added to the wells, and the solution is incubated for an additional 1 hour at 37° C. in 95% air and 5% CO2. Subsequently, the wells are rinsed 3 times with lmL of phosphate-buffered saline (PBS) to remove unattached cells. Attached cells are trypsinized and counted electronically (Coulter, ZBI). […]

Test [3] concerns B16F10 melanoma cells. Put plainly: Lung tumor colonization assay. Type of test: in vivo, mice. On the procedure: B16F10 melanoma cells, obtained from I.J. Fidler, M.D., Anderson Hospital, Houston, TX, are propagated under standard culture conditions. The lung tumor colonization assay is carried out as described in Fidler, I.J., Nature (London) (New Biol.) 242:148 (1973). Peptides are dissolved at 5 mg/mL in PBS and are filter-sterilized. The suspension of B16F10 cells (5×10^5) in 0.1 mL of DMEM is mixed with 0.1 mL of the peptide (or .1 ml PBS in control), incubated for 5 minutes at room temperature, and then injected into the tail vein of syngeneic C57BL/6 female mice (Jackson Labs., Bar Harbor, Me.) at 6 weeks of age. Each treatment and control group consists of eight mice. Three weeks after the injections, the mice are killed and the number of pulmonary tumors on the surface of the lungs counted.

Molecules are shown by their SMILES. Peptide text beside a SMILES is read from it.

Regarding `CC[C@H](C)[C@@H]1NC(=O)[C@H](Cc2ccc(O)cc2)NC(=O)[C@@H](CCCNC(=N)N)NC(=O)[C@H](CO)NC(=O)CNC1=O` [cyclic peptide of the invention] (HELM PEPTIDE1{G.S.[dR].Y.I}$PEPTIDE1,PEPTIDE1,1:R1-5:R2$$$V2.0), in test [1], the “elution of laminin receptor from laminin affinity columns” value is “elutes the laminin receptor from laminin affinity columns”. Further, in test [1] (67 kd laminin receptor), the “binding of laminin receptor” value is on record as “binds the 67 kd laminin receptor”. Also, the “affinity for cell adhesion” value in test [2] (HT-1080 cells, compared with the straight chain peptide, FIG. 1) is listed as “higher affinity for cell adhesion than the straight chain peptide”. The “blocking of cell adhesion and laminin-mediated adhesion” value in test [2] (summary statement) is “blocks cell adhesion, laminin-mediated adhesion”. Also, in test [3] (B16F10 cells mixed with peptide, injected into tail vein of C57BL/6 female mice, counted three weeks after injection, compared with linear YIGSR-NH2, FIG. 2), the “in vivo antimetastatic effectiveness (number of pulmonary tumors on the surface of the lungs)” value is “at least twice as effective as linear YIGSR-NH2”. For the same compound, the melanoma cell colonization entry in test [3] (summary statement) is recorded as “blocks”.
